Data: ChEMBL document CHEMBL1143051, “Novel cationic lipophilic peptides for oligodeoxynucleotide delivery” (Bioorg Med Chem, 2007)
Square brackets hold non-standard residues; d marks the D form. Peptide text beside a SMILES is read from it. ξ: configuration not given here. ξGly(decyl) = CCCCCCCCCCC(N)C(=O)O

Tests used:
[1] = Inhibition of IL2 production in antigen stimulated mouse 2B4.11 T hybridoma cells at 10 uM; format: functional
[2] = Inhibition of IL2 production in antigen stimulated mouse 2B4.11 T hybridoma cells at 25 uM; format: functional
[3] = Toxicity assessed as induction of haemolysis in rat erythrocytes at 1 mM after 30 mins; format: cell-based, Erythrocyte; conditions: read-out: Activity
[4] = Effect on transfection efficacy in human D407 cells assessed as reduction of hVEGF expression after 24 hrs by ELISA; format: functional
[5] = Apparent permeability across human Caco-2 cells; format: ADME, cell-based
[6] = Inhibition of IL2 production in antigen stimulated mouse 2B4.11 T hybridoma cells at 5 uM; format: functional
[7] = Effect on transfection efficacy in human D407 cells assessed as reduction of hVEGF expression after 48 hrs by ELISA; format: functional
T-cell = test: Inhibition of activation of antigen stimulated mouse 2B4.11 T cells assessed as IL2 production; format: functional, cell-based

Structure (SMILES)	Inhibition [1]	Inhibition [2]	hemolysis at 0.5 h, 1000 µM [3]	Inhibition [4]	Papp [5]	Inhibition [6]	Inhibition [7]	Activity (T-cell)
CC[C@H](C)[C@H](NC(=O)[C@H](CCCNC(=N)N)NC(=O)[C@H](CC(C)C)NC(=O)CN)C(=O)N[C@@H](CC(C)C)C(=O)N[C@@H](CC(C)C)C(=O)N[C@@H](CC(C)C)C(=O)N[C@@H](CCCCN)C(=O)N[C@H](C(=O)O)C(C)C (H-GLRILLLKV-OH)	102.53%	74.52%	< 2%	55%	0.042 ×10⁻⁶ cm/s	107%	63%	–
CCCCCCCCCCC(N)C(=O)NCC(=O)N[C@@H](CC(C)C)C(=O)N[C@@H](CCCNC(=N)N)C(=O)N[C@H](C(=O)N[C@@H](CC(C)C)C(=O)N[C@@H](CC(C)C)C(=O)N[C@@H](CC(C)C)C(=O)N[C@@H](CCCCN)C(=O)N[C@H](C(=O)O)C(C)C)[C@@H](C)CC (stereo partly specified) (H-[ξGly(decyl)]GLRILLLKV-OH)	48.13%	81.17%	< 2%	70%	0.11 ×10⁻⁶ cm/s	105.7%	76%	Dose-dependent effect
OC[C@@H](O)[C@@H](O)[C@H](O)[C@H](O)CO [MANNITOL]	–	–	–	–	0.555 ×10⁻⁶ cm/s	–	–	–
